Values after ≈ are worked out from the molar mass of the structure shown. Where two headings read alike, the source gives them in different places. Some results are limits rather than exact numbers.

The target of test [1] is T1, S. aureus SgtB (SgtB ΔTM) (Staphylococcus aureus, UniProt Q99T05).
T1 construct: SgtB ΔTM of S. aureus; made in house
In words: Dose-dependent displacement of probe CMG121 from S. aureus SgtB by fluorescence polarization. Type of test: binding. The following applies: 75 nM CMG121, 1.0-1.5 μM SgtB, pH 8.0, 30 min at 4° C., read-out: SgtB (FP, probe CMG121 displacement) IC50. As to the method: FIGS. 10A to 10E show dose-dependent displacement of probe CMG121 from S. aureus SgtB with exemplified compounds determined by fluorescence polarization.
All of the references are incorporated by reference herein. • SgtB ΔTM of S. aureus (referred to as “SgtB”), • PBP2a (A68-N728) of E. faecalis (referred to as “PBP2a”)
Probe compound CMG121 was prepared as previously described (Gampe et al., J. Am. Chem. Soc. 2013, 135 (10), 3776-3779; U.S. Provisional Patent Application Nos. 61/621,229 filed on Apr. 6, 2012).
(§1) I. Dose-Dependent Displacement of CMG121 from S. aureus SgtB by Fluorescence Polarization
(§2) A black 384 well plate (Corning NBS Low Volume No. 3820) was filled (10 μL per well) with an equilibrated solution containing 10 mM TRIS (pH=8.0), 100 mM NaCl, 75 nM CMG121, and 1.0-1.5 μM S. aureus SgtB (depending on protein batch). Due to presence of 8 mM CHAPS detergent in the buffer of the S. aureus SgtB stock, the final assay solution contains 100-160 μM CHAPS. Using an HP D300 Digital Dispenser, for each compound a 1/1 dilution series (12 wells) of the primary hit compound in DMSO (normalized to 1 μL with DMSO) was prepared and added to the aforementioned assay solution. The plate was incubated at 4° C. for 30 min and read with a Perkin Elmer EnVision microplate reader (FP-read out, excitation: 480 nm; emission: 535 nm).
(§3) FIGS. 10A-E show values of reduction of fluorescence polarization for exemplified compounds. […] In the primary assay, FP was read after 30 min at 4° C., compound concentration was ca. 100 μM, and 90% reduction in FP was threshold for scoring hits (Gampe et al., J. Am. Chem. Soc. 2013, 135 (10), 3776-3779; U.S. Provisional Patent Application, U.S. Ser. No. 61/621,229, filed on Apr. 6, 2012; International Application No. PCT/US2013/030800 filed on Mar. 13, 2013).
(§4) The values were determined in two independent experiments. IC50=10 μM; Hill slope: −0.92.

For test [2], the target named is S. aureus SgtB (Staphylococcus aureus, UniProt Q99T05). Described as above. Type of test: binding. More on the design: made in house. As for the experimental part: as §1, §2, §3, §4
Test [3] deals with S. aureus ATCC 29213. In words: MIC test according to CLSI M7-A9, S. aureus ATCC 29213. The format is cell-based. The conditions noted are these: Staphylococcus aureus, ATCC29213, CLSI M7-A9, CAMHB. The essentials:
(§5)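 Per CLSI M7-A9, DMSO stocks diluted in cation-adjusted Mueller Hinton broth, plates incubated 24 h at 37 °C in air. MIC is the lowest concentration giving complete inhibition of visible growth, read visually and at 600 nm.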

For test [4], the system named is S. aureus ATCC 43300. Description: MIC test according to CLSI M7-A9, S. aureus ATCC 43300. Type of test: cell-based. The conditions noted are these: Staphylococcus aureus, ATCC43300, CLSI M7-A9, CAMHB. The essentials:
as §5

Test [5] deals with H. influenzae ATCC 49247. In words: MIC test according to CLSI M7-A9, H. influenzae ATCC 49247. The format is cell-based. The following applies: Haemophilus influenzae, ATCC49247; CLSI M7-A9, Haemophilus Test Medium, 24 h. As to the method: MIC Test (H. influenzae ATCC 49247)
Susceptibility testing of H. influenzae ATCC 49247 was performed according to Clinical Laboratory Standard Institute (CLSI) guidelines M7-A9. Test articles were stored at room temperature prior to use, then dissolved in filtered sterile DMSO. Stock DMSO solutions were diluted further in Haemophilus Test Medium (HTM) to provide appropriate test concentrations. Cultures of H. influenzae ATCC 49247 were added in accordance with CLSI guidelines and plates incubated at 37° C. in air for 24 h. Endpoints were determined visually (and by spectrophotometer at 600 nm) and the minimum inhibitory concentration (MIC) defined as the lowest concentration of test articles resulting in complete inhibition of visible bacterial growth.

Test [6] concerns MSSA Newman. In words: MIC test in TSB medium with MTT staining, MSSA Newman. The format is cell-based, Staphylococcus aureus. The following applies: Staphylococcus aureus, TSB, 37° C. As for the experimental part:
MIC Test (Methicillin Susceptible Staphylococcus aureus (MSSA Newman))
Overnight cultures of MSSA Newman were grown up in TSB medium at 37° C. The cultures obtained were normalized with TSB to OD600=0.6 and diluted 100-fold. 1.5 μL of a dilution series of Example Compounds in DMSO (100×, in duplicate), and the diluted bacterial culture (150 μL) was added to wells of a sterile, clear 96 well plate and incubated at 37° C.

The subject of test [7] is S. aureus Newman. In words: MIC test according to CLSI M7-A9, S. aureus Newman. Type of test: cell-based. The conditions noted are these: Staphylococcus aureus, CLSI M7-A9, CAMHB, 24 h (Table 3), read-out: S. aureus ATCC Newman MIC. Put shortly: as §5
Where [8] appears, read: 24 h (Table 2), read-out: S. aureus ATCC 29213 MIC at 24 h.
Where [9] appears, read: 24 h (Table 2), read-out: S. aureus ATCC 43300 MIC at 24 h.
The mark [10] stands for this setting: MTT staining after 7 h, read-out: MSSA Newman MIC at 7 h.
The mark [11] stands for this setting: MTT staining after 24 h, read-out: MSSA Newman MIC at 24 h.
The mark [12] stands for this setting: 24 h (Table 3), read-out: S. aureus ATCC 29213 MIC.

The IC50 is the point on the concentration scale where inhibition reaches its midpoint. Take `Cc1ccc(OCCCSc2nc(-c3ccc(C(C)(C)C)cc3)nc3cc(=O)[nH]n23)cc1C` [Compound 1882F04]: the half-maximal inhibitory concentration (IC50) in test [1] (Figure 10F) is 26 µM.

As for `Cc1ccc(C(C)C)c(OCCSc2nc(-c3ccccc3F)nc3cc(=O)[nH]n23)c1` [Compound 1882J21], the IC50 in test [1] (Figure 10F) is over 200 µM.

`Cc1cccc(OCCCSc2nc(-c3ccc(C(C)(C)C)cc3)nc3cc(=O)[nH]n23)c1C` [Compound 1882L04]: the IC50 in test [1] (Figure 5) was found to be 7 µM.

Turning to `Cc1ccc(-c2nc(SCCOc3ccccc3C)n3[nH]c(=O)cc3n2)cc1` [Compound 1882P19], the IC50 in test [1] (Figure 10F) was over 200 µM.

In test [2], `Cc1ccc(CSc2nc(-c3ccc(C(C)(C)C)cc3)nc3cc(=O)[nH]n23)cc1` [Entry 9] showed an IC50 of 112 µM.

In test [2], `COc1ccc(CNc2nc(-c3ccc(C(C)(C)C)cc3)nc3cc(=O)[nH]n23)cc1` [Entry 14] displayed an IC50 of over 200 µM.

On to `CNc1nc(-c2ccc(C(C)(C)C)cc2)nc2cc(=O)[nH]n12` [Entry 16], for which, in test [2], the half-inhibitory concentration (IC50) is over 200 µM.

`CC(C)(C)c1ccc(-c2nc(N)n3[nH]c(=O)cc3n2)cc1` [Entry 17] displayed an IC50 in test [2] of over 200 µM.

In turn, `CC(C)(C)c1ccc(-c2nc(O)n3[nH]c(=O)cc3n2)cc1` [Entry 18] showed a concentration for half-maximal inhibition (IC50) in test [2] of 34 µM.

As for `CN1CCC(Nc2nc(-c3ccc(C(C)(C)C)cc3)nc3cc(=O)[nH]n23)CC1` [Example 19, 2-(4-tert-butylphenyl)-4-[(1-methylpiperidin-4-yl)amino]-6H,7H-pyrazolo[1,5-a][1,3,5]triazin-7-one], the MIC in test [3] (setting [8]), in test [4] (setting [9]) and in test [5] was 64 µg/mL (≈ 168 µM) each time.

Take `Cc1cccc(OCCCNc2nc(-c3ccc(C(C)(C)C)cc3)nc3cc(=O)[nH]n23)c1C` [Example 30, 2-(4-tert-butylphenyl)-4-{[3-(2,3-dimethylphenoxy)propyl]amino}-6H,7H-pyrazolo[1,5-a][1,3,5]triazin-7-one]: the MIC is 1.6 µg/mL (≈ 3.59 µM) in test [6] (setting [10]), 6.2 µg/mL (≈ 13.9 µM) in test [6] (setting [11]), over 32 µg/mL in test [3] (setting [8]) and over 32 µg/mL in test [4] (setting [9]).

In the case of `CC(C)(C)c1ccc(-c2nc(NCCCOC3CCCCC3)n3[nH]c(=O)cc3n2)cc1` [Example 31, 2-(4-tert-butylphenyl)-4-{[3-(cyclohexyloxy)propyl]amino}-6H,7H-pyrazolo[1,5-a][1,3,5]triazin-7-one], the results for the MIC in test [3] (setting [8]), in test [4] (setting [9]) and in test [5] were 8 µg/mL (≈ 18.9 µM), 16 µg/mL (≈ 37.8 µM) and 32 µg/mL (≈ 75.5 µM), respectively.

Consider `Cc1cc(NCCCNc2nc(-c3ccc(C(C)(C)C)cc3)nc3cc(=O)[nH]n23)ccc1Cl` [Example 47, 2-(4-tert-butylphenyl)-4-({3-[(4-chloro-3-methylphenyl)amino]propyl}amino)-6H,7H-pyrazolo[1,5-a][1,3,5]triazin-7-one], for which the MIC in test [6] (setting [10]) was 3.1 µg/mL (≈ 6.67 µM); in test [6] (setting [11]) it was 3.1 µg/mL (≈ 6.67 µM); in test [3] (setting [8]) it was 2 µg/mL (≈ 4.3 µM); in test [4] (setting [9]), 4 µg/mL (≈ 8.6 µM).

For `Cc1ccc(OCCCNc2nc(-c3ccc(C(C)(C)C)cc3)nc3cc(=O)[nH]n23)cc1C` [Example 49, 2-(4-tert-butylphenyl)-4-{[3-(3,4-dimethylphenoxy)propyl]amino}-6H,7H-pyrazolo[1,5-a][1,3,5]triazin-7-one], the MIC in test [6] (setting [10]) was 3.1 µg/mL (≈ 6.96 µM); in test [6] (setting [11]), 6.2 µg/mL (≈ 13.9 µM); in test [3] (setting [8]) it was 32 µg/mL (≈ 71.8 µM); in test [4] (setting [9]), 16 µg/mL (≈ 35.9 µM).

For the molecule `CC(C)(C)c1ccc(-c2nc(NCCCOc3cnc(Cl)nc3)n3[nH]c(=O)cc3n2)cc1` [Example 52, 2-(4-tert-butylphenyl)-4-({3-[(2-chloropyrimidin-5-yl)oxy]propyl}amino)-6H,7H-pyrazolo[1,5-a][1,3,5]triazin-7-one], the MIC in test [6] (setting [10]) is 12.5 µg/mL (≈ 27.5 µM); in test [6] (setting [11]) it was 25 µg/mL (≈ 55.1 µM); in test [3] (setting [8]) it was over 64 µg/mL; in test [4] (setting [9]), over 64 µg/mL.

As to `Cc1ccnc(C)c1OCCCNc1nc(-c2ccc(C(C)(C)C)cc2)nc2cc(=O)[nH]n12` [Example 53, 2-(4-tert-butylphenyl)-4-({3-[(2,4-dimethylpyridin-3-yl)oxy]propyl}amino)-6H,7H-pyrazolo[1,5-a][1,3,5]triazin-7-one], the MIC in test [6] (setting [10]) is over 100 µg/mL; in test [6] (setting [11]), over 100 µg/mL; in test [3] (setting [8]), over 64 µg/mL; in test [4] (setting [9]), 8 µg/mL (≈ 17.9 µM).

`Cc1ccc(-c2nc(NCCCNc3ccc(Cl)c(C)c3)n3[nH]c(=O)cc3n2)cc1` [Example 68, 4-({3-[(4-chloro-3-methylphenyl)amino]propyl}amino)-2-(4-methylphenyl)-6H,7H-pyrazolo[1,5-a][1,3,5]triazin-7-one]: the MIC is 1.6 µg/mL (≈ 3.78 µM) in test [6] (setting [10]), 3.1 µg/mL (≈ 7.33 µM) in test [6] (setting [11]), 16 µg/mL (≈ 37.8 µM) in test [3] (setting [8]) and 8 µg/mL (≈ 18.9 µM) in test [4] (setting [9]).

For the molecule `CC(C)(C)c1ccc(-c2nc(NCCNC3Cc4ccccc4C3)n3[nH]c(=O)cc3n2)cc1` [Example 90, 2-(4-tert-Butylphenyl)-4-({2-[(2,3-dihydro-1H-inden-2-yl)amino]ethyl}amino)-6H,7H-pyrazolo[1,5-a][1,3,5]triazin-7-one], the MIC in test [3] (setting [12]) was 16 µg/mL (≈ 36.2 µM); in test [4] (24 h (Table 3), read-out: S. aureus ATCC 43300 MIC) it was 16 µg/mL (≈ 36.2 µM); in test [7] it was 16 µg/mL (≈ 36.2 µM); in test [5], 16 µg/mL (≈ 36.2 µM).

On to `Cc1ccc(Cc2c(=O)[nH]n3c(=S)[nH]c(-c4ccc(C(C)(C)C)cc4)nc23)cn1` [Example 112, 2-(4-tert-butylphenyl)-8-[(6-methylpyridin-3-yl)methyl]-4-sulfanylidene-3H,4H,6H,7H-pyrazolo[1,5-a][1,3,5]triazin-7-one], for which the MIC in test [3] (setting [12]) is 8 µg/mL (≈ 19.7 µM); in test [7] it was 4 µg/mL (≈ 9.86 µM); in test [5], 16 µg/mL (≈ 39.5 µM).

In the case of `O=c1[nH]n2c(=S)[nH]c(C34CC5CC(CC(C5)C3)C4)nc2c1Cc1ccccc1` [Example 121, 2-(adamantan-1-yl)-8-benzyl-4-sulfanylidene-3H,4H,6H,7H-pyrazolo[1,5-a][1,3,5]triazin-7-one], the MIC came to 4 µg/mL (≈ 10.2 µM) in test [3] (setting [12]), 4 µg/mL (≈ 10.2 µM) in test [7] and 8 µg/mL (≈ 20.4 µM) in test [5].

On to `Cc1cc(OCCCNc2nc(-c3cc[n+]([O-])cc3)nc3cc(=O)[nH]n23)ccc1Cl` [Example 126, 4-(4-{[3-(4-chloro-3-methylphenoxy)propyl]amino}-7-oxo-6H,7H-pyrazolo[1,5-a][1,3,5]triazin-2-yl)pyridin-1-ium-1-olate], for which the MIC in test [5] is 1 µg/mL (≈ 2.34 µM).

The record behind these values is US20180162862A1 (President and Fellows of Harvard College, priority 2015, published 2018).
